Results on 5 molecules are retold here after US9234000B2, “Benzylamine derivatives as inhibitors of plasma kallikrein” (KalVista Pharmaceuticals Limited, priority 2011, dated 2016).

For orientation: solubility means the concentration that dissolves in the medium under given conditions. Broadly, the IC50 is the concentration at which inhibition is half-maximal.

Data set [1] can be described thus: physchem. The following applies: pH 7, aqueous buffer, kinetic from dmso stock. The procedure: Determination of the Kinetic Solubility in Phosphate Buffer
After shaking for approximately 30 seconds the reduction in light transmission of these samples, at 650 nm, was measured (Molecular Devices Spectromax UV/visible spectrophotometer). A second measurement was taken at approximately 30 seconds later.

Data set [2] can be described thus: Determination of thermodynamic solubility in phosphate buffer. It is filed as physicochemical. The following applies: pH 7.4, aqueous buffer, thermodynamic from solid, ammonium phosphate buffer pH7.4, 290 mOsm, 37° C., nominal 1 mg/mL, read-out: Solubility in PO4 buffer. In outline:
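Compound at nominal 1 mg/mL in ammonium phosphate buffer (pH7.4, 290 mOsm), shaken 1 h at 37° C., then centrifuged 15,000 g for 10 minutes at 37° C. Supernatant concentration measured by LC-MS/MS against a calibration line from a DMSO stock.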

The target in data set [3] is Human plasma kallikrein (Homo sapiens (Human), UniProt P03952). The data set is described as follows: Determination of the IC50 for plasma kallikrein. The following applies: 37° C., read-out: IC50 (human PKal). It is filed as biochemical. In a few lines: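 Residual activity (initial rate, absorbance at 410 nm) gave the IC50. Reactions at 37° C combined human plasma kallikrein, substrate H-DPro-Phe-Arg-AFC and a range of inhibitor concentrations.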

The target of data set [4] is Human KLK1 (Homo sapiens (Human), UniProt P06870). The data set is described as follows: Determination of the IC50 for KLK1. In kind it is biochemical. The following applies: Human KLK1, 37° C., substrate H-DVal-Leu-Arg-AFC. In a few lines: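 hKLK1 + H-DVal-Leu-Arg-AFC, 37° C, varied cpd conc. Initial rate by A410 change → residual activity → IC50.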
The target in data set [5] is thrombin (Homo sapiens (Human), UniProt P00734). In words: Determination of enzyme selectivity: thrombin. It is filed as biochemical. The conditions noted are these: substrate at Km. From the text:
(§1) Determination of Enzyme Selectivity

The target of data set [6] is plasmin (Homo sapiens (Human), UniProt P00747). The data set is described as follows: Determination of enzyme selectivity: plasmin. It is filed as biochemical. The following applies: substrate at Km.
Text: as §1

Data set [7] addresses Factor Xa (Homo sapiens (Human), UniProt P00742). In words: Determination of enzyme selectivity: Factor Xa. The following applies: substrate at Km. In kind it is biochemical.
Text: as §1

Data set [8] deals with Factor XIIa (Homo sapiens (Human), UniProt P00748). In words: Determination of enzyme selectivity: Factor XIIa. The conditions noted are these: fluorogenic substrate at Km concentration. It is filed as biochemical. As for the experimental part: as §1
Human serine protease enzymes plasmin, thrombin, trypsin, Factor Xa and Factor XIIa were assayed for enzymatic activity using an appropriate fluorogenic substrate. Protease activity was measured by monitoring the accumulation of liberated fluorescence from the substrate over 5 minutes. The linear rate of fluorescence increase per minute was expressed as percentage (%) activity. The Km for the cleavage of each substrate was determined by standard transformation of the Michaelis-Menten equation.

For data set [9], the system named is CA-I stimulated RVP. The data set is described as follows: Carbonic anhydrase I induced retinal vascular permeability model. The conditions noted are these: rat. It is filed as in vivo, Sprague Dawley rats. The procedure: Carbonic Anhydrase I Induced Retinal Vascular Permeability Model
After 30 mins, a second intravitreal injection (5 μL) of PBS or CA-I (200 ng/eye) was given. After 15 minutes, 10% sodium fluorescein was infused and retinal vascular permeability (RVP) was measured by vitreous fluorophotometry 75 minutes following the initial IVT injections.

The nature of data set [10]: Ocular and systemic pharmacokinetics following a single IVT dose. It is filed as in vivo, pigmented (Dutch-belted) rabbits. The conditions noted are these: rabbit. The procedure:
A pharmacokinetic study of Example 3 was performed to assess the ocular and systemic pharmacokinetics following a single IVT dose in pigmented (Dutch-belted) rabbits. […] Serial blood samples were collected in surviving rabbits.
Ocular tissue concentration data are presented in FIG. 2, in which the solid line for each ocular tissue concentration is the average of the left and right eye of each rabbit.

Molecules are shown by their SMILES. In brackets after ≈: the same amount, converted by molar mass. Like-named read-outs stand apart in the source and are kept apart here.

Sequence of Human plasma kallikrein (P03952 391-638): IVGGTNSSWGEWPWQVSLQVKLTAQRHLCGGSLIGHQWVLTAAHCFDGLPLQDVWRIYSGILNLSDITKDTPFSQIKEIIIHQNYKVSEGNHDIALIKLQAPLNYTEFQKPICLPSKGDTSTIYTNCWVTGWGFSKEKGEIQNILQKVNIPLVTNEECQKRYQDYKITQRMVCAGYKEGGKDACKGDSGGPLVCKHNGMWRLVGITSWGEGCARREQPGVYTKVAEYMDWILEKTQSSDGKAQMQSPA
Sequence of Human plasma kallikrein (P03952 20-390 partner): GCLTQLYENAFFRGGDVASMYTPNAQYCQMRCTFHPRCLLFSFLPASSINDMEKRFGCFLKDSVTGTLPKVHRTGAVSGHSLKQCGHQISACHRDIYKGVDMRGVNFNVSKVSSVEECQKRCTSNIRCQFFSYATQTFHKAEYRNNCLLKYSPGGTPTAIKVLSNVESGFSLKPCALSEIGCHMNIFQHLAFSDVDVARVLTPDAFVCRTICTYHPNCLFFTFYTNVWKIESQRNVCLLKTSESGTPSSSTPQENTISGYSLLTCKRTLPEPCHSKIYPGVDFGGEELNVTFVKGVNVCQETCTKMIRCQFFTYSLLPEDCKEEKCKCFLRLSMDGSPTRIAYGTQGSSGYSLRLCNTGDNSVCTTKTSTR
Sequence of Factor XIIa (P00748 373-615): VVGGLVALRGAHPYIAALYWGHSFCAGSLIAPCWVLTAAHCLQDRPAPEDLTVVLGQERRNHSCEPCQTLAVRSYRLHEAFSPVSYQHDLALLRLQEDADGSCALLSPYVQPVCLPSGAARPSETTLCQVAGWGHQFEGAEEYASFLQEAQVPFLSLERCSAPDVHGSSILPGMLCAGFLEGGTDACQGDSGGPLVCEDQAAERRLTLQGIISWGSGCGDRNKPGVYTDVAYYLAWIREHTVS
Sequence of Human KLK1 (P06870 25-262): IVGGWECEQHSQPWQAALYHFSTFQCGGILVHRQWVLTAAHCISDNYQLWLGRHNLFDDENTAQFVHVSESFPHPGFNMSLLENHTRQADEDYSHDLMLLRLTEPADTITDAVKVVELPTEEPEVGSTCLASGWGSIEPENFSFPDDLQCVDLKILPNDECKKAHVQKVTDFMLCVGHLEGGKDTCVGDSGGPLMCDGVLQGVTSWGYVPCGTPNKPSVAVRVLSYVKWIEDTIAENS
Sequence of plasmin (P00747 whole entry, looked up, change not shown): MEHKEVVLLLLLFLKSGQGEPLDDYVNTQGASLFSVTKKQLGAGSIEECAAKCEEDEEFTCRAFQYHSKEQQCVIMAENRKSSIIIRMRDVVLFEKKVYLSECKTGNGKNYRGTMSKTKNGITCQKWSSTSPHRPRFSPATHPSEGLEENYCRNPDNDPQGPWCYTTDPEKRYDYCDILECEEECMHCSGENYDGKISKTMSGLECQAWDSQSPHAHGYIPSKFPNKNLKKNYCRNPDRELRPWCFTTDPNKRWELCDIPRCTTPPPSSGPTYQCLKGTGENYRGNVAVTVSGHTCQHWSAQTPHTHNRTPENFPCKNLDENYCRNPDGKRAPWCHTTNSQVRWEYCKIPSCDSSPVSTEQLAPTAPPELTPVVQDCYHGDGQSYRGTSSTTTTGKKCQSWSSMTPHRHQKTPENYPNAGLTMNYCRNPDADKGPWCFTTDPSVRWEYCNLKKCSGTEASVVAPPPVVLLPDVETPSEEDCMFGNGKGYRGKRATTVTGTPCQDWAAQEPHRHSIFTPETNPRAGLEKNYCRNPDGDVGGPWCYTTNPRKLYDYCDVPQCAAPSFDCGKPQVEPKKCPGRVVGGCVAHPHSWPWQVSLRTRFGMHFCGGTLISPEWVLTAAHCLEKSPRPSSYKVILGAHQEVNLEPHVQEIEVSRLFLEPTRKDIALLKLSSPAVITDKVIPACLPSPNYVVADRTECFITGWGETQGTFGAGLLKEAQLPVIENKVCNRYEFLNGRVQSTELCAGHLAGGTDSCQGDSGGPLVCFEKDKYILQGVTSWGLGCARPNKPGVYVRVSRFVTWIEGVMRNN
Sequence of plasmin (P00747 whole entry partner, looked up): as the sequence (P00747 whole entry, looked up, change not shown) above
Sequence of Factor Xa (P00742 235-488): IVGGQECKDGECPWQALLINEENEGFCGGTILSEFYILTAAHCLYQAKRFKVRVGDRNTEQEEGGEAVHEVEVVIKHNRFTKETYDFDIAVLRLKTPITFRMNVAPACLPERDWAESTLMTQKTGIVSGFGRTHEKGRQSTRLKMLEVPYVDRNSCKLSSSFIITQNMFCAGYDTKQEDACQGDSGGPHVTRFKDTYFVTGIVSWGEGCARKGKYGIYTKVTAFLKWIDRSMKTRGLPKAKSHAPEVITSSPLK
Sequence of Factor Xa (P00742 41-179 partner): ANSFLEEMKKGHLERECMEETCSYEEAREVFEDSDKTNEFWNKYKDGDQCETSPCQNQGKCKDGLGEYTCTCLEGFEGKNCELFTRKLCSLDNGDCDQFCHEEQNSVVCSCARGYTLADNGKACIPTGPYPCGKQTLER

Take `CCOc1ccc(C[C@@H](NC(=O)c2ccccc2)C(=O)N[C@@H](Cc2ccccc2)C(=O)NCc2ccc(CN)cc2)cc1` [Example 3, N—[(R)-1-[(S)-1-(4-Aminomethyl-benzylcarbamoyl)-2-phenyl-ethylcarbamoyl]-2-(4-ethoxy-phenyl)-ethyl]-benzamide]: in [1], the solubility is 12 µM (≈ 6.94 µg/mL). Further, the solubility at 1 h in data set [2] was 10 µg/mL (≈ 17.3 µM). Also, the IC50 in data set [3] (fluorogenic substrate H-DPro-Phe-Arg-AFC) is 0.022 µM; in [4] (Table 12) it was above 10 µM; in [5], above 40 µM; in data set [6] it was 3.5 µM; in data set [7], above 10 µM; in [8], above 10 µM. The “reduction of RVP stimulated by CA-I injection” value in data set [9] (intravitreal injection 1 μM (5 μL), CA-I 200 ng/eye, RVP measured at 75 minutes) is listed as 53±21%. Besides, the “basal RVP” value in data set [9] (intravitreal injection of 1 μM alone (no CA-I), PBS alone 3.64±0.48, no effect) was found to be 3.29±0.21. The “decline in ocular tissue concentrations” value in data set [10] (IVT 210 ng per eye, vitreous, retina/choroid, aqueous humour, over 7 days) is reported as “minimal”. Moreover, the “Plasma concentrations following IVT administration” value in [10] (single bilateral IVT 210 ng per eye, all time points) is “below 1 ng/mL”.
`CCOc1ccc(C[C@@H](NC(=O)c2ccc(Cl)c(Cl)c2)C(=O)N[C@@H](Cc2ccccc2)C(=O)NCc2ccc(CN)cc2)cc1` [Example 93, N-[(R)-1-[(S)-1-(4-Aminomethyl-benzylcarbamoyl)-2-phenyl-ethylcarbamoyl]-2-(4-ethoxy-phenyl)-ethyl]-3,4-dichloro-benzamide]: the solubility at 1 h in data set [2] came to 0.01 µg/mL (≈ 0.0154 µM). Also, the IC50 was 0.175 µM in data set [3] (substrate H-DPro-Phe-Arg-AFC), above 10 µM in data set [4] (Table 13) and above 10 µM in data set [8].
On to `CCOc1ccc(C[C@@H](NC(=O)c2ccccn2)C(=O)N[C@@H](Cc2cccs2)C(=O)NCc2ccc(CN)cc2)cc1` [Example 157, Pyridine-2-carboxylic acid [(R)-1-[(S)-1-(4-aminomethyl-benzylcarbamoyl)-2-thiophen-2-yl-ethylcarbamoyl]-2-(4-ethoxy-phenyl)-ethyl]-amide], for which the solubility at 1 h in data set [2] is 4.77 µg/mL (≈ 8.14 µM). Besides, the results for the IC50 in data set [3] (substrate H-DPro-Phe-Arg-AFC), in data set [4] (Table 13) and in data set [8] were 0.036 µM, above 10 µM and above 10 µM, respectively.
Consider `CCOc1ccc(C[C@@H](NC(=O)c2ccc(C)cc2)C(=O)N[C@@H](Cc2cccnc2)C(=O)NCc2ccc(CN)cc2)cc1` [Example 199, N—[(R)-1-[(S)-1-(4-Aminomethyl-benzylcarbamoyl)-2-pyridin-3-yl-ethylcarbamoyl]-2-(4-ethoxy-phenyl)-ethyl]-4-methyl-benzamide], for which, in [2], the solubility at 1 h was determined as 15.9 µg/mL (≈ 26.7 µM). Also, the IC50 was 0.01 µM in [3] (substrate H-DPro-Phe-Arg-AFC), above 10 µM in data set [4] (Table 13) and above 10 µM in [8].
In the case of `NCc1ccc(CNC(=O)[C@H](Cc2ccccc2)NC(=O)C(Cc2ccc(OCC(F)(F)F)cc2)NC(=O)c2ccccc2)cc1` (stereo partly drawn) [Example 201, N-{(R,S)-1-[(S)-1-(4-Aminomethyl-benzylcarbamoyl)-2-phenyl-ethylcarbamoyl]-2-[4-(2,2,2-trifluoro-ethoxy)-phenyl]-ethyl}-benzamide], the IC50 in data set [3] (substrate H-DPro-Phe-Arg-AFC) is 0.012 µM; in data set [4] (Table 13) it was above 10 µM; in data set [8], above 10 µM.
